Measurements from patent US20060172890A1, “Liquid formulation of a plant growth regulator” (priority 2004, published 2006).
Where two headings read alike, the source gives them in different places.

Assays:
[1] = Solubility of GA in solvents and solvent blends; format: physicochemical
Method: Gibberellic acid (GA) of 92% purity as a dry powder was used in these laboratory studies. The solvents and reagents were of reagent grade purity.
Also, the GA was easier to dissolve in the solvent blends because they were not as viscous as the single solvents. Moreover, the solvent blends had high flash points. A flash point above 140° F. is very desirable because there are less regulatory restrictions on manufacturing, transportation, and storage.

pea seedlings = details: cited from earlier work
dwarf morning glory = details: cited from earlier work
[2] = test system: corn, green bean, cucumber, tomato, ryegrass and hosta seedlings; test: Phytotoxicity of sprayed aqueous solvents, greenhouse tests; format: in vivo; details: sprayed 1 to 2% aqueous solutions; greenhouse tests with seedlings
Method: (§1) The potential for phytotoxicity (plant injury) by spraying 1 to 2% aqueous solutions of ethyl lactate and solvent blends with ethyl lactate, as well as other ingredients such as glycerol and soy methyl esters was evaluated in field tests with apple trees and in greenhouse tests with corn, green bean, cucumber, tomato, ryegrass and hosta seedlings.

apple trees = test: Phytotoxicity of sprayed aqueous solvents, field tests; format: in vivo; details: sprayed 1 to 2% aqueous solutions; field tests with apple trees
Method: as §1

## C=C1C[C@]23C[C@@]1(O)CC[C@H]2[C@@]12C=C[C@H](O)[C@@](C)(C(=O)O1)[C@H]2[C@@H]3C(=O)O [GA, Gibberellic acid]
[1]; 80:20 (w/w) ethyl lactate with propylene glycol or glycerol
  solubility of GA in the solvent blends compared with ethyl lactate alone: twice as much
[1]; glycerol alone, solution very viscous and difficult to mix
  amount of GA dissolved in glycerol: a small amount
[1]; mild heating to 60° C.
  effect of mild heating on dissolution of GA in ethyl lactate: did not increase the dissolution
[1]; propylene glycol alone, solution very viscous and difficult to mix
  amount of GA dissolved in propylene glycol: a small amount
[1]; room temperature
  solubility of GA in ethyl lactate alone: approximately 2 % (w/w)

## gibberellin
Pea seedlings; ten micrograms applied at 3 days old
  effect on shoot length: nearly doubled shoot length
Pea seedlings; ten micrograms, 9 day old seedlings
  effect on shoot length: barely affected
Dwarf morning glory; 2 to 20 micrograms
  effect on flowering: inhibits flowering
Dwarf morning glory; application of 0.02 micrograms
  effect on flowering: promotes flowering

## CCOC(=O)C(C)O (centres unmarked) [ethyl lactate]
[2]
  phytotoxicity (plant injury): no evidence of phytotoxicity
Apple trees
  phytotoxicity (plant injury): no evidence of phytotoxicity
